# Patent US7700763B2, “3-triazolyl-galactoside inhibitors of galectins” (Forskarpatent I Syd AB, priority 2004, dated 2010)
# Where two headings read alike, the source gives them in different places.
# Tests used:
# [1] = biological target: T1, Recombinant human galectin-3 (Homo sapiens, UniProt P17931); test: fluorescence polarization-based galectin-3 inhibition assay; type: binding
# T1 construct: made in house; host or cells: Escherichia coli
# Procedure: NMR-spectra were recorded with a Bruker DRX-400 instrument. Chemical shifts are given in ppm, with reference to internal residual solvent peaks. Chemical shifts and coupling constants were obtained from ^1H-NMR and proton resonances were assigned from COSY experiments. High-resolution FAB mass spectra (HRMS) were recorded with a JEOL SX-120 instrument. Fluorescence polarization experiments were performed on a PolarStar instrument (BMG, Offenburg; Germany). Column chromatography was performed on SiO2 (Matrex, 60 Å, 35-70 μm, Grace Amicon) and TLC was carried out on SiO2 60 F254 (Merck) with detection under UV light and developed with aqueous sulfuric acid. Concentrations were made using rotary evaporation with bath temperature at or below 40° C. CH2Cl2 and CH3CN were dried by distillation from CaH2. Microwell plates were from Costar, Corning, N.Y. (black polystyrene). Recombinant human galectin-3 was produced in Escherichia coli and purified as previously described (S. M. Massa et al, 1993). PBS was 118 mM NaCl, 67 mM Na/K-phosphate, pH 7.2, 2 mM EDTA, 4 mM β-mercaptoethanol.
# To 100 μL of galectin-3 (1 μM) and a fluorescent probe (2-(fluorescein-5/6-yl-carbonyl)-aminoethyl 4-O-[3-O-(4-methoxy]benzyl)-β-D-galactopyranosyl]-β-D-glucopyranoside, 0.1 μM) were added inhibitor solution (3.2-10000 μM, 100 μL), the plate was incubated under slow rotary shaking in the dark for 5 minutes, and fluorescence polarization measured at room temperature. The fluorescence was measured from above in 96 well microtiter plates (black polystyrene, Costar, Corning, N.Y.) using a PolarStar instrument (BMG, Offenburg; Germany). Control wells containing only fluorescent probe or fluorescein were included. All dilutions and measurements were done in PBS.
# galectins = settings: cited from earlier work
# [2] = galectin-3, fluorescence polarization
# T1 sequence (P17931 whole entry): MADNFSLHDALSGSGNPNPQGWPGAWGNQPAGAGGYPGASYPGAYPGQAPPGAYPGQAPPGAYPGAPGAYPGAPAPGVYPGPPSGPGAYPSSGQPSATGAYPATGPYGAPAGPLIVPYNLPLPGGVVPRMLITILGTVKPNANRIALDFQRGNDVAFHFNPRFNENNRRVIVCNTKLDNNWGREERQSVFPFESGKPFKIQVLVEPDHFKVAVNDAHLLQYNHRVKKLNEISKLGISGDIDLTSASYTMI
Compound,Kd ([1]; read-out: Calculated Kd),other results
"COC(=O)c1cn([C@H]2[C@@H](O)[C@@H](CO)O[C@@H](SC)[C@@H]2O)nn1 [Compound 10, Methyl 3-(4-methoxycarbonyl-1H-[1,2,3]-triazol-1-yl)-3-deoxy-1-thio-β-D-galactopyranoside]",1.41e+06 nM,–
O=C[C@H](O)[C@@H](O)[C@@H](O)[C@H](O)CO [D-galactose],–,"affinity lower than lactose (galectins; galectins, relative to lactose): 50-100 times"
"CCCCNC(=O)c1cn(C2C(O)[C@H](SC)OC(CO)[C@@H]2O)nn1 (stereo partly drawn) [Compound 15, Methyl 3-(4-butylaminocarbonyl-1H-[1,2,3]-triazol-1′-yl)-3-deoxy-1-thio-β-D-galactopyranoside]",124000 nM,"improvement in Kd in comparison with the reference inhibitor 27 [1, 2]: 50 fold"
"CS[C@@H]1OC(CO)[C@H](O)C(n2cc(C(=O)NCCN3CCOCC3)nn2)C1O (stereo partly drawn) [Compound 18, Methyl 3-{4-[2-(N-morpholino)-ethylaminocarbonyl]-1H-[1,2,3]-triazol-1-yl}-3-deoxy-1-thio-β-D-galactopyranoside]",571000 nM,–
OC[C@H]1O[C@@H](O[C@H]2[C@H](O)[C@@H](O)C(O)O[C@@H]2CO)[C@H](O)[C@@H](O)[C@H]1O (some centres unmarked) [lactose],–,"Kd (galectins; all galectins, reviewed by Leffler, 2001 and Leffler et al., 2004): 500 to 1000 µM"
"CS[C@@H]1O[C@H](CO)[C@H](O)[C@H](n2ccnn2)[C@H]1O [Compound 8, Methyl 3-deoxy-3-(1H-[1,2,3]-triazol-1-yl)-1-thio-β-D-galactopyranoside]",2.1e+07 nM,–
"CNC(=O)c1cn([C@H]2[C@@H](O)[C@@H](CO)O[C@@H](S[C@@H]3O[C@H](CO)[C@H](O)[C@H](n4cc(C(=O)NC)nn4)[C@H]3O)[C@@H]2O)nn1 [Compound 26, Bis-(3-deoxy-3-{4-[(methylamino)carbonyl]-1H-1,2,3-triazol-1-yl}-β-D-galactopyranosyl)sulfane]",–,"Kd ([1]; galectin-3, fluorescence polarization, value given in text in nM, read-out: Kd): 150 nM"
"CNC(=O)c1cn([C@H]2[C@@H](O)[C@@H](CO)O[C@@H](SC)[C@@H]2O)nn1 [Compound 14, Methyl 3-(4-methylaminocarbonyl-1H-[1,2,3]-triazol-1-yl)-3-deoxy-1-thio-β-D-galactopyranoside]",–,"Kd ([1]; affinity for galectin-3 calculated from test by fluorescence polarization at one tested conc., galectin-3 1 μM, probe 0.1 μM, PBS, room temperature, read-out: Calculated Kd): 230000 nM"
"CS[C@@H]1O[C@H](CO)[C@H](O)[C@H](n2cc(-c3ccccc3)nn2)[C@H]1O [Compound 12, Methyl 3-deoxy-3-(4-phenyl-1H-[1,2,3]-triazol-1-yl)-1-thio-β-D-galactopyranoside]",147000 nM,"improvement in Kd in comparison with the reference inhibitor 27 [1, 2]: 50 fold"
"CS[C@@H]1O[C@H](CO)[C@H](O)[C@H](n2cc(C(=O)NCc3ccccc3)nn2)[C@H]1O [Compound 16, Methyl 3-(4-benzylaminocarbonyl-1H-[1,2,3]-triazol-1-yl)-3-deoxy-1-thio-β-D-galactopyranoside]",–,"improvement in Kd in comparison with the reference inhibitor 27 [1, 2]: 50 fold"

# The next lines start with results.
Kd ([1]; read-out: Calculated Kd),Compound,other results
4.62e+06 nM,"CCCc1cn([C@H]2[C@@H](O)[C@@H](CO)O[C@@H](SC)[C@@H]2O)nn1 [Compound 9, Methyl 3-deoxy-3-(4-propyl-1H-[1,2,3]-triazol-1-yl)-1-thio-β-D-galactopyranoside]",–
386000 nM,"CS[C@@H]1O[C@H](CO)[C@H](O)[C@H](n2cc(C(=O)NCCCO)nn2)[C@H]1O [Compound 17, Methyl 3-{4-(3-hydroxyprop-1-ylaminocarbonyl)-1H-[1,2,3]-triazol-1-yl}-3-deoxy-1-thio-β-D-galactopyranoside]",–
141000 nM,"CS[C@@H]1O[C@H](CO)[C@H](O)[C@H](n2cc(S(=O)(=O)c3ccc(C)cc3)nn2)[C@H]1O [Compound 13, Methyl 3-deoxy-3-(4-p-tolylsulfonyl-1H-[1,2,3]-triazol-1-yl)-1-thio-β-D-galactopyranoside]","improvement in Kd in comparison with the reference inhibitor 27 [1, 2]: 50 fold"
1.38e+06 nM,"CS[C@@H]1O[C@H](CO)[C@H](O)[C@H](n2cc(C3(O)CCCCC3)nn2)[C@H]1O [Compound 11, Methyl 3-deoxy-3-(4-(1-hydroxy-1-cyclohexyl)-1H-[1,2,3]-triazol-1-yl)-1-thio-β-D-galactopyranoside]",–
